According to patent publication US20080293626A1, “Pigment epithelium-derived factor as a therapeutic agent for vascular leakage” (The Johns Hopkins University, priority 2003, published 2008):
Ends that are not written are not given here.

Experiments:
[1] = test system: VEGF-induced retinal vascular permeability; test: Evans blue assay after intravitreal co-injection with VEGF164; format: in vivo, mouse (C57BL/6J); details: mouse eye, co-injected intravitreally with VEGF164 at 20-fold molar excess
Protocol: (§1) Intravitreal injection to assess bioactivity on vascular permeability. C57BL/6J mice, 6-8 weeks of age, were cared for in accordance with the Association for Research in Vision and Opthalmology Statement for the Use of Animals in Ophthalmic and Vision Research. For anesthesia, each received intramuscularly 20 mg/kg ketamine, 20 mg/kg xylazine and 800 mg/kg urethane in 0.3-0.4 ml of phosphate buffered saline (PBS, 1.06 mM KH2PO4, 0.15 M NaCl and 3.00 mM Na2HPO4, pH 7.4). Under 10× magnification, 1 μl of murine VEGF164 (12.6 ng/μl in PBS; R&D Systems, Minneapolis, Minn.) was delivered through a 20° beveled glass pipette, with a tip diameter of 13-20 μm. The contralateral eye received an equal volume of PBS alone or PBS containing 12.6 ng VEGF164, and a 20-fold molar excess of PEDF (232 ng), ACT (278 ng), HSP47 (278 ng), PEDFpep (28.1 ng), ACTpep (29.7 ng), or CHIMERApep (28.2 ng).
Evans Blue assay. […]
To assess the Evans blue-albumin concentration, the optical density of the retinal extract and plasma samples were measured at 620 nm and 740 nm. The retinal vasopermeability was calculated as the quantity of retinal Evans blue normalized to retinal dry weight, plasma Evans blue concentration, and circulation time by using the formula as described^32,44. […]

[2] = test system: VEGF164-stimulated bovine retinal capillary endothelial cell migration; details: 8 h
Protocol: BRCEC migration assay. Bovine retinal capillary endothelial cells (BRCEC) were isolated and cultured as described 45. […] Cells, between the fifth and ninth passage, were starved overnight in MEM with D-Val and 2% fetal bovine serum. Polycarbonate filters (10 μm pore-size, PVPF; Osmonics Inc., Minnetonka, Minn.) were coated with 100 μg/ml collagen. Quadruplicates with test samples in MEM D-Val (28 μl), and 10^4 cells in MEM D-Val (50 μl) were placed in the lower and upper wells, respectively, of the microchemotaxis chamber (NeuroProbe, Gaithersburg, Md.). After incubating 8 hours at 37° C., the non-migrated cells on the upper surface of the filter were removed, and the filters were stained with Harris' hematoxylin. For each of the test samples, one 400× field per quadrant of each of the quadruplicates was counted. From the total cell number in the 4 fields, the mean and standard error of the quadruplicate wells were calculated. Baseline migration equaled the number of migrated cells with MEM D-Val without any added proteins or peptides. The difference between baseline and the number of migrated cells with VEGF added equals maximal total migration.

[3] = test system: VEGF-induced retinal vascular permeability; test: Fluorescein angiography after intravitreal co-injection with VEGF164; format: in vivo, mouse (C57BL/6J); details: mouse eye, co-injected intravitreally with 12.6 ng VEGF164 at 20-fold molar excess; 20 h after injection; qualitative
Protocol: as §1
Fluorescein angiograghy. Twenty hours after intravitreal injections, each pupil was dilated with one drop of 1% atropine sulfate. After intraperitoneal injection of 0.1 ml of 25% fluorescein, successive retina photographs were taken with a Kowa Genesis camera. The first photograph was taken within 20 seconds of the intraperitoneal fluorescein injection. […] Fluorescein leakage manifests as indistinct vascular borders progressing to diffusely hazy fluorescence.

IC50 [2]: 3 nM
Sequence: VLLSPLSVATALSALSLGAEQRTESIIHRALYYDLISSPDIHGT [PEDFpep]
inhibition of VEGF-induced retinal vascular permeability (Evans blue-albumin) ([1]; 24 h, VEGF-induced increase = 100%, mean ±SE): 83.7±17.1%
effect on VEGF-induced vascular permeability by Evans blue assay ([1]; qualitative statement): effectively inhibited
effect on VEGF-induced fluorescein leakage / vascular permeability (fluorescein angiography) [3]: effectively inhibits
